Patent US20070191935A1, “Drug Delivery Stent with Extended In Vivo Drug Release” (Conor Medsystems, Inc., priority 2006, published 2007)

Legend:
[1] = in vivo paclitaxel release from stent (explanted stents, total drug load by HPLC)
Excerpt: The measurement of in vivo paclitaxel release from a stent can be performed according to the following Example.
Stents are implanted in a porcine model and explanted at selected time points by removing the entire artery section. The expanded stents are labeled and frozen. The tissue is removed from the stent by slicing the tissue on the outside of the stent lengthwise, inverting the tissue, and removing the tissue by cutting and turning the tissue inside out. The stent may still be covered by a tough elastic membrane which is then removed by splitting the membrane and peeling it off the stent. For longer time points, there will also be a tub of tissue inside the stent. This tube is separated from the stent with tweezers, turned inside out and pulled out of the stent.
The elution rates of drug from the examples are determined in a standard sink condition experiment.
The total drug load (TDL) of paclitaxel from a stent is determined by extracting all the polymer and drug from the stent in a solvent such as dimethyl sulfoxide (DMSO) or acetonitrile. The amount of paclitaxel in a solution sample is determined by High Pressure Liquid Chromatography (HPLC).
The in vivo release kinetic (RK) for paclitaxel from a stent is determined by running the TDL for multiple explanted time points. The TDL for the explanted samples is subtracted from the TDL of an unimplanted stent to determine the amount of paclitaxel released at each of the explanted time points.

[2] = system: in stent neointimal proliferation; experiment: clinical trials, in stent neointimal proliferation; conditions: in vivo release greater than 60 days from stent

## CC(=O)O[C@H]1C(=O)[C@@]2(C)[C@H]([C@H](OC(=O)c3ccccc3)[C@]3(O)C[C@H](OC(=O)[C@H](O)[C@@H](NC(=O)c4ccccc4)c4ccccc4)C(C)=C1C3(C)C)[C@]1(OC(C)=O)CO[C@@H]1C[C@@H]2O [paclitaxel]
[1]; first 30 days after implantation
  in vivo release of the paclitaxel on the stent in the first 30 days after implantation: not more than 40%
[1]; in vivo
  complete release of the entire dose of paclitaxel loaded on the stent: ≤ 8 months
[1]; in vivo, FIG. 4
  time until all the drug loaded on the stent is released: 90 to 180 days
[1]; in vivo, after day one, continues for up to about 90 days
  release rate after day one: under 0.1 μg per day
[2]
  in stent neointimal proliferation, longer in vivo release vs more rapid release of the same dosage: lower in stent neointimal proliferation than the more rapid release of the same dosage
